Measurements reported in ChEMBL document CHEMBL1132893, “The design and synthesis of potent cyclic peptide VCAM-VLA-4 antagonists incorporating an achiral Asp-Pro mimetic” (Bioorg Med Chem Lett, 2000).

What was measured:
Integrin alpha-4 [1] = target: T1, Integrin alpha-4 (Homo sapiens, UniProt P13612); assay: Inhibition of VLA-4 binding to recombinant human VCAM using Ramos cell assay; type: cell-based
T1 sequence (P13612 whole entry): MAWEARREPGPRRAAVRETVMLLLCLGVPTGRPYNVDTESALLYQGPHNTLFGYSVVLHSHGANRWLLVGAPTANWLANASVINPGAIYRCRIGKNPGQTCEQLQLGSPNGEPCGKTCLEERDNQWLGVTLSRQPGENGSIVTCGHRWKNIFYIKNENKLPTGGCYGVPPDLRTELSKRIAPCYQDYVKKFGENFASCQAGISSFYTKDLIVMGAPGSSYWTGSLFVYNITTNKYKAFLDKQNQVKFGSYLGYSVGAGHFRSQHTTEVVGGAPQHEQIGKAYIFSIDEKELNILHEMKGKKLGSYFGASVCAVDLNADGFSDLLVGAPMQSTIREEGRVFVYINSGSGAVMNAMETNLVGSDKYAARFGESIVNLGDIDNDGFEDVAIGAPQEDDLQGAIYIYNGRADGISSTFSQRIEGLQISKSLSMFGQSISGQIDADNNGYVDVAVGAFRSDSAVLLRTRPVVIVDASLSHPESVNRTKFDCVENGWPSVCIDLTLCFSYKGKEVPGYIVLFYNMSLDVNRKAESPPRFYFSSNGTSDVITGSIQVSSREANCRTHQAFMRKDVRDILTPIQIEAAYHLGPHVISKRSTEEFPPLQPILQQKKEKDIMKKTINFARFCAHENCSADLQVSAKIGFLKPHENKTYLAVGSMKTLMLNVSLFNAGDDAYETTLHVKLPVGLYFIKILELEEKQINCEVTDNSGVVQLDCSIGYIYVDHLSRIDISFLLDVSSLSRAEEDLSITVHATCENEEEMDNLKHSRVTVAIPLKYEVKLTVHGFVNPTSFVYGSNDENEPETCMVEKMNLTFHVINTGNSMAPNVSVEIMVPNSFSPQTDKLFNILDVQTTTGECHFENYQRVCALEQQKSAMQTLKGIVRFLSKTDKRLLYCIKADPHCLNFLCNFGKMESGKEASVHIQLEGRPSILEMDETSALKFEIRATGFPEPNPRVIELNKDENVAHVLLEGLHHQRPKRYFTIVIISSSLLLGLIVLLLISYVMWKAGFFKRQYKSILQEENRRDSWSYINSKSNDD

Integrin alpha-4 [2] = target: T1, Integrin alpha-4; assay: Inhibition of VLA-4 binding to recombinant human VCAM using Solid phase assay

SMILES | IC50 (Integrin alpha-4 [1]) | IC50 (Integrin alpha-4 [2])
CC(=O)N[C@@H](Cc1ccc(O)cc1)C(=O)N[C@H]1CSSC[C@@H](C(=O)O)NC(=O)C2(CCCC2)CCNC1=O | 12 nM | 0.7 nM
N[C@@H](Cc1ccc(O)cc1)C(=O)N[C@H]1CSSC[C@@H](C(=O)O)NC(=O)C2(CCCC2)CNC1=O |  | 5 nM
CC1(C)CCNC(=O)[C@@H](NC(=O)[C@@H](N)Cc2ccc(O)cc2)CSSC[C@@H](C(=O)O)NC1=O |  | 112 nM
N[C@@H](Cc1ccc(O)cc1)C(=O)N[C@H]1CSSC[C@@H](C(=O)O)NC(=O)C2(CCCC2)CCCNC1=O | 480 nM | 19 nM
CCC1(CC)CCNC(=O)[C@@H](NC(=O)[C@@H](N)Cc2ccc(O)cc2)CSSC[C@@H](C(=O)O)NC1=O |  | 3.9 nM
N[C@@H](Cc1ccc(O)cc1)C(=O)N[C@H]1CSSC[C@@H](C(=O)O)NC(=O)C2(CCCC2)CCNC1=O | 24 nM | 
